The subject of data set [1] is untreated viable HL-60 or Jurkat cells. As to the kind of experiment: Protease retention: substrate cleavage in untreated viable cells. The data set is classed as cell-based. The arrangement: key: None denotes no statistical activity above control population.; (+) to (+++++) denotes the range of activity above control population from modest to robust; (+) to (+++++) denotes the range of activity above control population from modest to robust; (+) to (+++++) denotes the range of activity above control population from modest to robust; (+) to (+++++) denotes the range of activity above control population from modest to robust; (+) to (+++++) denotes the range of activity above control population from modest to robust. The settings on record: proteolytic activity on substrate in untreated viable HL-60 or Jurkat cells, above control population; 15-30 min 37° C. As to the method:
(§1) All substrates were solubilized in DMSO from 10 to 100 mM depending upon inherent solubility. Fluorescent substrates were diluted to 100 μM to 1 mM in 10 mM Hepes, pH 7.5 or matched cell culture medium with 10% serum and added in 1/10th volumes to lysed (freeze fractured, sonicated, or detergent) or untreated viable cells in white-walled, clear bottomed 96-well plates. HL-60 or Jurkat were used in the experimentation interchangeably because of their easily manipulated suspension phenotype. Plates were incubated for 15-30 minutes at 37° C. prior to measuring fluorescence by the CytoFluor II.
(§2) Luminescent substrates were added to a luciferin detection cake (Promega V859A) resuspended in 2 ml 10 mM Hepes, pH 7.5 to 500 μM. ⅕^th volume of the proluminescent reaction mixes were added to lysed (freeze fractured, sonicated, or detergent) or untreated viable cells in white-walled, clear bottomed 96-well plates. Again, HL-60 or Jurkat were used in the experimentation interchangeably. Plates were incubated at 37° C. in a MeCour' circulating heat block controlled by a Caron 2050 W exchange unit. Luminescence was measured between 15 and 30 minutes (signal steady state).
(§3) A broad variety of proteolytic substrates were examined in an effort to characterize potential substrate preferences for protease release or retention in compromised or viable cells (see Table 3). […] Non-blocked substrates (H- and the like) were examined to include the contribution of aminopeptidase activities. From this panel, at least three proteolytic profiles emerged: an aminopeptidase-like activity preferring unblocked Ala-Ala-Phe tripeptide, a proteosomal (chymotrypsin-like) activity measured by release of blocked Leu-Leu-Val-Tyr (SEQ ID NO:1) peptides, and an exceedingly labile activity by Gly-Phe, Gly-Ala, Phe-, Tyr- or Gly-Gly-Leu substrates. The latter activities were only measurable in viable, intact cells. Of further significance is that several fluorophores or proluminescent labels can be used to detect these activities, ultimately allowing for enhanced downstream multiplexing flexibility.

Data set [2] has as its system lysed HL-60 or Jurkat cells. As to the kind of experiment: Protease release: substrate cleavage in lysed (compromised) cells. The data set is classed as cell-based. The arrangement: key: None denotes no statistical activity above control population.; (+) to (+++++) denotes the range of activity above control population from modest to robust; (+) to (+++++) denotes the range of activity above control population from modest to robust; (+) to (+++++) denotes the range of activity above control population from modest to robust; (+) to (+++++) denotes the range of activity above control population from modest to robust; (+) to (+++++) denotes the range of activity above control population from modest to robust. As to conditions: proteolytic activity on substrate in lysed (freeze fractured, sonicated or detergent) HL-60 or Jurkat cells, above control population; 15-30 min 37° C. The procedure:
as §1, §2, §3

Data set [3] relates to proteasome or luciferase activity in HL-60 cells. As to the kind of experiment: Screen of cell membrane permeabilization reagents in cell-based luminescent proteasome reaction. The settings on record: 25,000 HL-60 cells, detergent 0.05 and 0.1% final, 22° C., LLVY-aminoluciferin. As to the method: FIGS. 10A-C. Screen for cell membrane permeabilization reagents suitable to detect proteasomes in a cell-based luminescent reaction.
Other permeabilizing agents were screened for those suitable to detect proteasome activity in a cell-based assay (FIGS. 10A-C). Reagents containing low concentrations of various detergents (0.05 and 0.1% final) were prepared. 100 μl/well samples containing 25,000 HL-60 cells in complete medium were added to a 96-well plate and equilibrated at 37° C. The plate and reagents were cooled to 22° C. and an equal volume of reagent was added to each sample. The plate was shaken for 1 minute, then incubated at 22° C. Luminescence was then determined over time.

Data set [4] relates to proteasome activity in HL-60 cells. As to the kind of experiment: Cell-based luminescent proteasome assay in HL-60 cells. The settings on record: 1.5 hour treatment (FIG. 2B).
A further data set deals with ACHN cells. As to the kind of experiment: Multiplexed protease retention (Gly-Phe-AFC) and Caspase-Glo 3/7 assay. The data set is classed as cell-based. As to conditions: serial dilutions, 5 hours. The procedure:
(§4) SK-MEL-28 or ACHN cells were seeded into white-walled, clear bottomed 96 well plates at a density of 10,000 cells per well in 100 μl volumes and allowed to attach at 37° C. in 5% CO2 for a period of 2 hours. After attachment, 50 μl of medium was carefully removed and replaced with serial dilutions of either ionomycin or staurosporine in MEM+10% FBS. Medium only served as control. The plate was incubated for an additional 5 hours. A 1 mM solution of Gly-Phe-AFC was made in MEM and added to the wells in a 1/10th volume. Resulting fluorescence was measured using a CytoFluor II. Caspase-Glo™ 3/7 reagent was then added and luminescence measure using a BMG FLUOstar Optima.

In a further data set the test system is SK-MEL-28 cells. The data set is described as above. The data set is classed as cell-based. As to conditions: serial dilutions, 5 hours. As to the method: as §4

Marks after values point to notes of the source that are not given here. *1 amine or outer side, *2 acyl side, *3 side chain or, on linkers, in order; H or OH if unused. Where no end group is shown, it is not given here. [ ]: non-standard residue; d: D form. The star is where a group is joined. aminoluciferin = O=C(O)[C@H]1CSC(c2nc3ccc(N*)cc3s2)=N1; AFC = O=c1cc(C(F)(F)F)c2ccc(N*)cc2o1; AMC = Cc1cc(=O)oc2cc(N*)ccc12; Suc = O=C(CCC(=O)[*:2])[*:1]; code Z = not defined here; Cbz = O=C(OCc1ccccc1)*

For `Cc1cc(=O)oc2cc(NC(=O)[C@@H](N)Cc3ccc(O)cc3)ccc12` [H-Tyr-AMC], the Retention result in data set [1] is “++”. Also, the Release result in data set [2] is recorded as “None”.

For the compound “Glutyl-Ala-Ala-Phe-AMC [Gluty-Ala-Ala-Phe-AMC]”, the Retention result in data set [1] is on record as “None”. Besides, in data set [2], the Release result is reported as “None”.

Take Ser-Tyr-{AFC}: in data set [1], the Retention entry is on record as “None”. The Release result in data set [2] is “None”.

As to Suc-Ala-Ala-Phe-{AMC}, the Retention entry in data set [1] was “None”. In addition, the Release entry in data set [2] was “None”.

Turning to “(Ala-Ala-Phe)2-R110 [(Ala-Ala-Phe) 2 R110]”, in data set [1], the Retention entry is given as “None”. Moreover, the Release result in data set [2] was “++++”.

Turning to Cbz-Gly-Gly-Leu-{AMC}, in data set [1], the Retention result is given as “++*”. Further, in data set [2], the Release entry is recorded as “None”.

Consider “Z-Leu-Arg-Gly-Gly-AMC (LRGG; Z N-terminal, AMC C-terminal)”, for which the Retention entry in data set [1] is “None”. The Release result in data set [2] is “None”.

On to `C[C@H](CCC(=O)NCCC[N+](C)(C)CCCS(=O)(=O)[O-])[C@H]1CC[C@H]2[C@@H]3[C@H](O)C[C@@H]4C[C@H](O)CC[C@]4(C)[C@H]3C[C@H](O)[C@]12C` [CHAPS], for which the “effect on proteasome or luciferase activity” value in data set [3] is “negative effects”.

Turning to “Suc-Arg-Pro-Phe-His-Leu-Leu-Val-Tyr-AMC (Suc-RPFHLLVY-{AMC}; SMILES Cc1cc(=O)oc2cc(NC(=O)[C@H](Cc3ccc(O)cc3)NC(=O)[C@@H](NC(=O)[C@H](CC(C)C)NC(=O)[C@H](CC(C)C)NC(=O)[C@H](Cc3c[nH]cn3)NC(=O)[C@H](Cc3ccccc3)NC(=O)[C@@H]3CCCN3C(=O)[C@H](CCCNC(=N)N)NC(=O)CCC(=O)O)C(C)C)ccc12) [S-R-P-F-H-L-L-V-Y-AMC]”, the Retention entry in data set [1] was “None”. Also, the Release result in data set [2] is “None”.

In the case of Ala-Ala-Phe-{AMC}, the Retention result in data set [1] was “None”. In data set [2], the Release result was “++++”.

For (Gly-Phe)2-R110 [(Gly-Phe)2 R110], in data set [1], the Retention result is “None”. Besides, the Release result in data set [2] is listed as “None”.

In the case of `CCCC[C@@H](C=O)NC(=O)[C@H](CC(C)C)NC(=O)OCc1ccccc1` [Calpeptin, calpeptin], in data set [4], the “effect on proteasome activity” value is on record as “minimal effect”.

Turning to H-Gly-Phe-{AMC}, the Retention entry in data set [1] was “++”. For the same compound, the Release result in data set [2] was “None”.

As to H-[dA]-Leu-Lys-{AMC}, the Retention result in data set [1] is listed as “None”. Moreover, the Release result in data set [2] is listed as “None”.

`CN[C@@H]1C[C@H]2O[C@@](C)([C@@H]1OC)n1c3ccccc3c3c4c(c5c6ccccc6n2c5c31)C(=O)NC4` [staurosporine]: the “cytotoxicity profile (protease retention viability and caspase 3/7 activity)” value in the data set with ACHN cells is “apoptotic profile”; in the data set on SK-MEL-28 cells, “caspase activation (and therefore apoptosis induction) is evident”.

As for Triton X-100, the “effect on proteasome or luciferase activity” value in data set [3] is “did not substantially effect”.

Consider Gly-Phe-{AFC}, for which the Retention result in data set [1] was “++++”. For the same compound, in data set [2], the Release result is on record as “None”.

Cbz-Gly-Ala-Met-{AMC}: the Retention result in data set [1] was “None”. Besides, the Release entry in data set [2] is listed as “None”.

For Tergitol® NP-9, the “effect on proteasome or luciferase activity” value in data set [3] is on record as “did not substantially effect”.

On to Ala-Ala-Phe-aminoluciferin, for which, in data set [1], the Retention result is reported as “None”. In addition, in data set [2], the Release result is listed as “++++”.

On to “Z-Phe-Arg-aminoluciferin [Z-Phe-Arg-Aluc]”, for which the Retention entry in data set [1] is on record as “None”. For the same compound, the Release result in data set [2] is “None”.

For “Z-Leu-Leu-Val-Tyr-aminoluciferin ({code Z}-LLVY-aminoluciferin; reading uncertain; also: printed as Z-Leu-Leu-Val-Tyr-aminoluciferin) [Z-Leu-Leu-Val-Tyr-Aluc]”, the Retention result in data set [1] is “None”. Besides, in data set [2], the Release entry is “++”.

For the compound H-Gly-Gly-{AMC}, the Retention result in data set [1] is “None”. Moreover, the Release result in data set [2] was “None”.

Turning to `Cc1cc(=O)oc2cc(NC(=O)[C@@H](N)Cc3ccccc3)ccc12` [H-Phe-AMC], in data set [1], the Retention entry is “+++”. Further, the Release entry in data set [2] was “None”.

Take “Z-Arg-Leu-Arg-Gly-Gly-AMC (RLRGG; Z N-terminal, AMC C-terminal)”: the Retention entry in data set [1] is “None”. Besides, the Release result in data set [2] was “None”.

“Suc-Leu-Leu-Val-Tyr-AMC (Suc-LLVY-{AMC}; SMILES Cc1cc(=O)oc2cc(NC(=O)[C@H](Cc3ccc(O)cc3)NC(=O)[C@@H](NC(=O)[C@H](CC(C)C)NC(=O)[C@H](CC(C)C)NC(=O)CCC(=O)O)C(C)C)ccc12)”: in data set [1], the Retention result is given as “None”. In data set [2], the Release result is given as “+”.

Consider Ac-Ala-Ala-Tyr-{AMC}, for which the Retention result in data set [1] is listed as “None”. Also, in data set [2], the Release entry is “None”.

Turning to “Z-Leu-Arg-aminoluciferin [Z-Leu-Arg-Aluc]”, the Retention result in data set [1] was “None”. The Release result in data set [2] is given as “None”.

As to `CCCCCCCCCCCCOS(=O)(=O)[O-].[Na+]` [SDS], the “effect on proteasome or luciferase activity” value in data set [3] is given as “negative effects”.

For Cbz-Phe-Arg-{AMC}, the Retention entry in data set [1] is recorded as “None^1”. In addition, in data set [2], the Release entry is reported as “None”.

Take Tween®-20: the “effect on proteasome or luciferase activity” value in data set [3] was “negative effects”.

Take H-Gly-Ala-{AMC}: the Retention entry in data set [1] was “++”. In addition, in data set [2], the Release entry is “None”.

As for `C[C@H](CCC(=O)O)C[C@H](C)C[C@H](C)C(=O)/C=C(\O)[C@H](C)C[C@H](C)C/C=C/[C@@H](C)[C@@H](O)[C@@H](C)[C@@H](O)C[C@@H]1CC[C@@](C)([C@H]2CC[C@@](C)([C@@H](C)O)O2)O1` [ionomycin], the “cytotoxicity profile (protease retention viability and caspase 3/7 activity)” value with SK-MEL-28 cells is on record as “necrotic-type profile”.

Consider H-Pro-Phe-Arg-{AMC}, for which the Retention result in data set [1] is “None”. The Release entry in data set [2] is given as “None”.

Values taken from patent US20070048812A1, “Cell-based luminogenic and nonluminogenic proteasome assays” (priority 2005, published 2007).
